Test results reported in publication PMC6390472, “‘Second-generation’ 1,2,3-triazole-based inhibitors of Porphyromonas gingivalis adherence to oral streptococci and biofilm formation” (MedChemComm, 2019).
Like-named read-outs stand apart in the source and are kept apart here.

How the values were obtained:
[1] = tested on: P. gingivalis adherence to S. gordonii; test: Biofilm model of P. gingivalis adherence to S. gordonii (confocal, green/red fluorescence ratio); format: cell-based, P. gingivalis ATCC33277 / S. gordonii DL-1; settings: inhibition of P. gingivalis adherence to S. gordonii; concentration that reduced ratio of green to red fluorescence by 50%; tested 0–60 μM
Description: (§1) P. gingivalis ATCC33277 was grown in reduced trypticase soy broth (Difco) supplemented with 0.5 percent yeast extract, 1 μg mL^–1 menadione, and 5 μg mL^–1 hemin. Twenty five milliliters of medium were reduced for 24 h under anaerobic conditions by equilibrating in an atmosphere consisting of 10% CO2, 10% H2, and 80% N2. Following equilibration, P. gingivalis was inoculated in the medium and grown for 48 h at 37 °C under anaerobic conditions. S. gordonii DL-1 (1) was cultured aerobically without shaking in brain heart infusion (BHI) broth supplemented with 1 percent yeast extract for 16 hours at 37 °C. For some compounds that inhibited P. gingivalis adherence to S. gordonii, we determined their effect on planktonic growth of P. gingivalis and S. gordonii. The appropriate growth medium (10 ml) was supplemented with 10 μl of a 40 mM compound stock solution in DMSO. After inoculation, broth cultures were incubated as described above and compared to cultures grown in medium that was supplemented only with 0.1% DMSO. The cell density of each culture was determined by measuring the optical density at 600 nm (O.D.600nm) and the percent growth inhibition/stimulation was calculated using the following equation: [(O.D.600nm of the control/O.D.600nm of the culture grown in the presence of compound) – 1] × 100.
Two species biofilms were formed essentially as previously described.[39] To prepare bacterial cells for biofilm culture, 10 ml of an overnight S. gordonii culture was centrifuged at 5600 rpm for 5 min and the cell pellet was suspended in 1 mL sterile PBS. Subsequently, 20 μL of 5 mg ml^–1 hexidium iodide (Molecular Probes) was added to the cell suspension and incubated for 15 min with gentle shaking at room temperature in the dark. The labeled cells were centrifuged as described above, washed with phosphate-buffered saline (10 mM Na2HPO4, […], […], and 2.7 mM KCl, pH 7.2; [PBS]) and the cell pellet was suspended in PBS at a final O.D.600nm of 0.8. Similarly, 10 mL of a 48 h culture of P. gingivalis was centrifuged at 5600 rpm for 15 min, the cell pellet was suspended in 1 mL PBS and 20 μL of 5(6)-carboxyfluorescein N-hydroxysuccinimide ester (4 mg ml^–1, Molecular Probes, Inc.) was added. After incubation for 30 min with gentle shaking at room temperature in the dark, the suspension was centrifuged and washed as described above and suspended in PBS at a final O.D.600nm of 0.4. For biofilm cultures, 1 mL of labeled S. gordonii cells was added to each well of a 12-well microtiter plate (Greiner Bio-one) containing a circular coverslip (Fisher brand) and incubated in an anaerobic chamber with rotary shaking for 24 h at 37 °C. Unbound cells were removed by aspiration and 1 ml of labeled P. gingivalis cells containing the desired concentration of test compound was added and incubated under anaerobic conditions for 22 h at 37 °C. Test compounds were dissolved in dimethyl sulfoxide (DMSO) to generate 1000× stock solutions and were routinely tested over a final concentration range of 0–60 μM. 1 μL of the appropriate stock solution was added to each 1 mL aliquot of labeled P. gingivalis cells and incubated for 30 min at room temperature prior to adding the suspension to the microtiter plate wells. For control biofilms, 1 μL of DMSO was added to 1 mL of labeled P. gingivalis and incubated as described above.
To visualize P. gingivalis/S. gordonii biofilms, unbound P. gingivalis cells were removed by aspiration and coverslips were washed once with PBS. Biofilms were fixed by incubating the coverslips with 1 mL of 4% paraformaldehyde for 5 min followed by two washes with PBS. The coverslips were then removed, placed face down on a glass microscope slide containing a drop of antifade reagent (Life Technology) and sealed with nail polish. […]

[2] = tested on: S. gordonii; test: Planktonic growth of S. gordonii (O.D.600nm); format: cell-based, S. gordonii DL-1; settings: Streptococcus gordonii, read-out: Percent inhibition of: S. gordonii (planktonic growth)
Description: as §1

[3] = tested on: P. gingivalis; test: Planktonic growth of P. gingivalis (O.D.600nm); format: cell-based, P. gingivalis ATCC33277; settings: Porphyromonas gingivalis, read-out: Percent inhibition of: P. gingivalis (planktonic growth)
Description: as §1

[4] = tested on: TIGK cells; test: Cellular ATP levels, CellTiterGlo; format: cell-based, Human; settings: for ATP levels: 95 (5, 20, 40 μM), 111 (5, 20, 60 μM), 115 (5, 10, 20 μM), 122 (5, 20, 60 μM)
Description: Human telomerase immortalized gingival keratinocytes (TIGKs) were provided by Dr. Richard Lamont (University of Louisville) and were authenticated by comparison to primary gingival epithelial cells for cell morphology, growth, cytokeratin expression and the expression of toll-like receptors. TIGKs were cultured at 37 °C in an atmosphere of 5% CO2 in Basal Medium Dermalife K complete kit with Supplements (LifeLine, Frederick, MD). Cultures were incubated for 5 days and attained >95% confluence.
Cell metabolic activity was assessed by quantifying total ATP levels in cell culture samples using CellTiterGlo reagent (Promega). TIGK and J774A.1 cells were cultured and incubated with compounds as described above, washed three times with sterile PBS and incubated with 100 μl of CellTiterGlo substrate for 2 min with shaking and for an additional 10 min without shaking. Total light production was measured using a Victor 3 multi-label plate reader (PerkinElmer) in luminometer mode. All samples were assayed in triplicate.

[5] = 40 μM compound, cultures incubated overnight, vs 0.1% DMSO

`Fc1ccc(Nc2nc(Nc3ccc(F)cc3)nc(-c3cn(-c4cccc(-c5nc(-c6ccccc6)c(-c6ccccc6)o5)c4)nn3)n2)cc1` [Compound 111] gave an IC50 [1] of 4.3 µM, an inhibition at 40 µM [2] of 2.9 ± 3.9% and an inhibition at 40 µM [3] of 8.3 ± 3.6%. For the same compound, the “Concentration with cytotoxic activity relative to IC50 for inhibition of adherence” value ([4]; 60 μM vs IC50) was “approximately 15 fold”, the “Reduction of ATP levels” value ([4]; 18 h exposure, 60 μM, p < 0.05 vs 0.1% DMSO) was “statistically significant” and the ATP levels ([4]; 18 h exposure) was “dose-dependent reduction of ATP levels”.
`Fc1ccc(Nc2nc(Nc3ccc(F)cc3)nc(-c3cn(-c4ccccc4-c4nc(-c5ccco5)c(-c5ccco5)o4)nn3)n2)cc1` [Compound 122] gave an IC50 [1] of 2.4 µM, an inhibition at 40 µM [2, 5] of -0.6% and an inhibition at 40 µM [3, 5] of 2.5 ± 5.4%. The ATP levels ([4]; 18 h exposure) was “did not significantly reduce the levels of ATP”.
`Fc1ccc(Nc2nc(Nc3ccc(F)cc3)nc(-c3cn(-c4ccc(-c5nc(-c6ccc(F)cc6)c(-c6ccc(F)cc6)o5)cc4)nn3)n2)cc1` [Compound 115] gave an IC50 [1] of 2.3 µM, an inhibition at 40 µM [2, 5] of -0.6% and an inhibition at 40 µM [3, 5] of -2.8%. For the same compound, the ATP levels ([4]; 18 h exposure) was “did not significantly reduce the levels of ATP”.
`CCN(CC)c1nc(-c2cn(-c3ccc(-c4nc(-c5ccc(Cl)cc5)c(-c5ccc(Cl)cc5)o4)cc3)nn2)nc(N(CC)CC)n1` [Compound 95] gave an IC50 [1] of 3.7 µM, an inhibition at 40 µM [2, 5] of -0.8% and an inhibition at 40 µM [3, 5] of 0.4 ± 6.1%. The ATP levels ([4]; 18 h exposure) was “did not significantly reduce the levels of ATP”.
Work on `COc1ccccc1-c1cn(-c2ccc(S(=O)(=O)Cc3nc(-c4ccc(Cl)cc4)c(-c4ccc(Cl)cc4)o3)cc2)nn1` [Compound 57] yielded an IC50 [1] of 20 µM and a melting point of 236 to 238 °C.
